Measured values reported in paper PMC12029992, “Beyond-Rule-of-Five Compounds Are Not Different: In Vitro–In Vivo Extrapolation of Female CD-1 Mouse Clearance Based on Merck Healthcare KGaA Compound Set” (Pharmaceuticals, 2025).
Read-outs that look alike come from different tables or passages of the source.

Tested on: Caco-2 cells (TC7 clone)
Assay: Caco-2 assay (permeability, efflux ratio)
Format: in vitro ADME
Method: Reagents and Materials: Phosphate Buffer 20mM pH 7.4: EMS, Art No. 11601-40; DMSO Merck Art. No. 102950; Acetonitrile Merck, Art. No. 100030, Methanol Merck Art. No.
106007; Formic Acid Merck Art.No.100264; Acetonitrile Merck Art. No.10030; Filtration Plate Millipore MultiScreen HTS HV 0.45uM; 96 Well Millipore Art. No. MSHVN4510; Column Waters XBridge Column C8 3.5μm (Waters Cat. No. 186003053); HPLC vials VWR Cat. No. 5480028; Micro-Inserts VWR Cat. No. 548-0006; Screw caps VWR Cat. No.
The Caco-2 assays were performed in a transwell assay setup using Caco-2 cells (TC7 clone). The Caco-2 cells were seeded into the apical wells (125000 cells per well) in DMEM (Dulbecco’s Modified Eagle’s Medium) with 20% FBS (fetal bovine serum) into Corning 24-well transwell plates and cultured for 14-21 days. Prior to the experiment, the plates were washed with HBSS (Hanks' Balanced Salt Solution). Apparent permea-bility Papp was determined from apical-to-basolateral (Papp,AB) by adding 1 […] in HBSS into the apical compartment and HBSS in the basolateral compart-ment, and vice versa for Papp,BA from basolateral-to-apical. Apical volumes were 250 μL, basolateral volumes were 750 μL. DMSO content was <1 % (v/v) in all wells. Monolayer tightness was controlled using melagatran as tightness marker.
Samples were taken from both compartments at timepoint t0 and after 2 hours incuba-tion at 37 °C in 5% CO2 and 100% humidity, and analyzed via UHPLC-MS/MS. The ap-parent permeability Papp was calculated as follows:
P௔௣௣ = Δc௥௘௖Δt∙ V௥௘௖A x cௗ௢௡,଴
Where ∆crec/∆t is the change of concentration in the receiver compartment over the incu-bation time (i.e. 2 hours), Vrec is volume of the receiver compartment, cdon,0 is the concen-tration in the donor compartment at time t0, and A is the surface of the membrane on which the cells grew (i.e. 0.33 cm²).
Mass balance was checked after the experiment by determining the recovery after the […]
Recovery = nௗ௢௡,௘௡ௗ + nௗ௢௡,௥௘௖= cௗ௢௡,௘௡ௗ ∙Vௗ௢௡ + c௥௘௖ ,௘௡ௗ ∙V௥௘௖
The efflux ratio (ER) describes affinity towards efflux transporters:
The geometric mean of Papp,AB and Papp,BA was used as passive permeability Papp,pass.

| SMILES | CaCo-2 Efflux ratio ER | CaCo-2 Papp Passive (apparent passive permeability) | CaCo-2 Efflux ratio ER (Caco-2) | CaCo-2 Papp Passive (Caco-2) |
| --- | --- | --- | --- | --- |
| O=C(O)c1cc(-c2ccc(F)cc2F)ccc1O [MSC001] | 2.6 | 25.85 10e-6 cm/s |  |  |
| CNC(=O)c1cc(Oc2ccc3nc(N[C@@H]4CCCC[C@H]4O)sc3c2)ccn1 [MSC003] | 1.4 | 31.60 10e-6 cm/s |  |  |
| COc1cccc(OCCCN)c1-c1cc(Nc2cnc(C#N)cn2)n[nH]1 [MSC020] | 48.4 | 2.67 10e-6 cm/s |  |  |
| N#Cc1c[nH]c2c(C(=O)N3CCN(CCc4ccc(F)cc4)CC3)cccc12 [MSC213] |  |  | 1.0 | 24.10 10e-6 cm/s |
